Laboratory results taken from US20240140933A1, “OXOINDOLINE COMPOUND FOR THE TREATMENT OF INFLAMMATORY DISEASES OR CANCER” (Hoffmann-La Roche Inc., priority 2021, published 2024).

The compounds below were run against PDHK1 (Homo sapiens (Human), UniProt Q15118) (assay: PDHK1 enzymatic assay (AlphaScreen, phosphorylation of PDHE1 S293)). Conditions: 1 nM PDHK1, 25 nM PDHE1, 20 μM ATP, 30° C. for 45 minutes.
Type: biochemical
From the text: Pyruvate dehydrogenase complex (PDHc) is an enzyme that catalyzes the reaction of pyruvate and a lipoamide to give the acetylated dihydrolipoamide and carbon dioxide. PDHc has three subunits E1, E2 and E3. E1 has 3 serine phosphorylation sites S293, S232, S300. If E1 was phosphorylated, PDH will be inactivated. PDHK can phosphorylate PDH protein (also named PDHE1) in PDH complex (PDC) to inactivate it.

PDHK1, sequence (Q15118 29-436): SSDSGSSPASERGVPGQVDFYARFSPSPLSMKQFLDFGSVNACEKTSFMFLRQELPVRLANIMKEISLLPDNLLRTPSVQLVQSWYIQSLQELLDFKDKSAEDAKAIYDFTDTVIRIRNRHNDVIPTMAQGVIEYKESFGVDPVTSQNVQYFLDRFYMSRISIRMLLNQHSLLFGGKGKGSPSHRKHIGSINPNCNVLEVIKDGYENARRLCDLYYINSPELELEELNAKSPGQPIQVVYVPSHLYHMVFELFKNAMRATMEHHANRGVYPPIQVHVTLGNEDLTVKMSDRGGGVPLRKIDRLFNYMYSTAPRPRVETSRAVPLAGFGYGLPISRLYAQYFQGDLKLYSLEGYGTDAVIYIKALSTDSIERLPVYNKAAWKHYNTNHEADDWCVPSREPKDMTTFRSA

Row | Enzymatic IC50 against PDHK1 [µg/mL] | SMILES
1 | 0.037 | CCNc1cc(F)cc2c1NC(=O)C2(C)N1CCC[C@@H](Nc2ccc(O)nc2)C1 (stereo partly drawn) [Example 21, 7-(ethylamino)-5-fluoro-3-[(3R)-3-[(6-hydroxy-3-pyridyl)amino]-1-piperidyl]-3-methyl-indolin-2-one]
2 | 0.015 | CCNc1cc(F)cc2c1NC(=O)C2(C)N1CCC[C@@H](Oc2ccc(O)c(C=O)c2)C1 (stereo partly drawn) [Example 2, 5-[[(3R)-1-[7-(ethylamino)-5-fluoro-3-methyl-2-oxo-indolin-3-yl]-3-piperidyl]oxy]-2-hydroxy-benzaldehyde]
3 | 0.019 | CCNc1cc(F)cc2c1NC(=O)C2(C)N1C[C@@H](C)C[C@@H](Nc2ccc(C#N)nc2)C1 (stereo partly drawn) [Example 47, 5-[[(3R,5S)-1-[7-(ethylamino)-5-fluoro-3-methyl-2-oxo-indolin-3-yl]-5-methyl-3-piperidyl]amino]pyridine-2-carbonitrile]
4 | 0.020 | CCNc1cc(F)cc2c1NC(=O)C2(C)N1CCC[C@@H](Nc2ccc(C(=O)O)nc2)C1 (stereo partly drawn) [Example 11, 5-[[(3R)-1-[7-(ethylamino)-5-fluoro-3-methyl-2-oxo-indolin-3-yl]-3-piperidyl]amino]pyridine-2-carboxylic acid]
5 | 0.022 | CCNc1cc(F)cc2c1NC(=O)C2(C)N1CCC[C@@H](Nc2ccc(C#N)cc2)C1 (stereo partly drawn) [Example 8, 4-[[(3R)-1-[7-(ethylamino)-5-fluoro-3-methyl-2-oxo-indolin-3-yl]-3-piperidyl]amino]benzonitrile]
6 | 0.016 | CCNc1cc(F)cc2c1NC(=O)C2(C)N1CCC[C@@H](Nc2ccc(C(=O)CO)cc2)C1 (stereo partly drawn) [Example 19, 7-(ethylamino)-5-fluoro-3-[(3R)-3-[4-(2-hydroxyacetyl)anilino]-1-piperidyl]-3-methyl-indolin-2-one]
7 | 0.038 | CCNc1cc(F)cc2c1NC(=O)C2(C)N1CCC[C@@H](Nc2ccc(S(C)(=O)=O)nc2)C1 (stereo partly drawn) [Example 20, 7-(ethylamino)-5-fluoro-3-methyl-3-[(3R)-3-[(6-methylsulfonyl-3-pyridyl)amino]-1-piperidyl]indolin-2-one]
8 | 0.062 | CCNc1cc(F)cc2c1NC(=O)C2(C)N1CCC[C@@H](Nc2ccc(C(N)=O)nc2)C1 (stereo partly drawn) [Example 12, 5-[[(3R)-1-[7-(ethylamino)-5-fluoro-3-methyl-2-oxo-indolin-3-yl]-3-piperidyl]amino]pyridine-2-carboxamide]
9 | 0.032 | C=CC(=O)N1CC2(CC(C(=O)N[C@@H]3CCCN(C4(C)C(=O)Nc5c(NCC)cc(F)cc54)C3)C2)C1 (stereo partly drawn) [Example 41, N-[(3R)-1-[7-(ethylamino)-5-fluoro-3-methyl-2-oxo-indolin-3-yl]-3-piperidyl]-2-prop-2-enoyl-2-azaspiro[3.3]heptane-6-carboxamide]
10 | 0.015 | C=CS(=O)(=O)N[C@H]1CN(C2(C)C(=O)Nc3c(NCC)cc(F)cc32)CC[C@@H]1c1ccccc1 (stereo partly drawn) [Example 53, N-[(3R,4R)-1-[7-(ethylamino)-5-fluoro-3-methyl-2-oxo-indolin-3-yl]-4-phenyl-3-piperidyl]ethenesulfonamide]
11 | 0.009 | CCNc1cc(F)cc2c1NC(=O)[C@]2(C)N1CC[C@H](c2ccccc2)[C@H](C(N)=O)C1 [Example 63A, (3S,4S)-1-[(3R)-7-(ethylamino)-5-fluoro-3-methyl-2-oxo-indolin-3-yl]-4-phenyl-piperidine-3-carboxamide]
12 | 0.026 | CCNc1cc(F)cc2c1NC(=O)C2(C)N1CCC[C@@H](NC(=O)C2CCN(C#N)CC2)C1 (stereo partly drawn) [Example 38, 1-cyano-N-[(3R)-1-[7-(ethylamino)-5-fluoro-3-methyl-2-oxo-indolin-3-yl]-3-piperidyl]piperidine-4-carboxamide]
13 | 0.020 | CCNc1cc(F)cc2c1NC(=O)C2(C)N1CC[C@H](c2ccccc2)[C@@H](NC(C)=O)C1 (stereo partly drawn) [Example 52, N-[(3R,4R)-1-[7-(ethylamino)-5-fluoro-3-methyl-2-oxo-indolin-3-yl]-4-phenyl-3-piperidyl]acetamide]
14 | 0.030 | CCNc1cc(F)cc2c1NC(=O)C2(C)N1CCC[C@@H](NC(=O)c2cc(F)c(O)c(F)c2)C1 (stereo partly drawn) [Example 35, N-[(3R)-1-[7-(ethylamino)-5-fluoro-3-methyl-2-oxo-indolin-3-yl]-3-piperidyl]-3,5-difluoro-4-hydroxy-benzamide]
15 | 0.037 | CCNc1cc(F)cc2c1NC(=O)C2(C)N1CC[C@H](c2ccccc2)[C@@H](Nc2ccc(C#N)nc2)C1 (stereo partly drawn) [Example 55, 5-[[(3R,4R)-1-[7-(ethylamino)-5-fluoro-3-methyl-2-oxo-indolin-3-yl]-4-phenyl-3-piperidyl]amino]pyridine-2-carbonitrile]
16 | 0.007 | CCNc1cc(F)cc2c1NC(=O)C2(CC)N1CC[C@H](F)[C@@H](Nc2ccc(C#N)nc2)C1 (stereo partly drawn) [Example 49, 5-[[(3S,4S)-1-[3-ethyl-7-(ethylamino)-5-fluoro-2-oxo-indolin-3-yl]-4-fluoro-3-piperidyl]amino]pyridine-2-carbonitrile]
17 | 0.060 | CCNc1cc(F)cc2c1NC(=O)C2(C)N1CCC[C@@H](Nc2cnc(C#N)cn2)C1 (stereo partly drawn) [Example 15, 5-[[(3R)-1-[7-(ethylamino)-5-fluoro-3-methyl-2-oxo-indolin-3-yl]-3-piperidyl]amino]pyrazine-2-carbonitrile]
18 | 0.047 | CCNc1cc(F)cc2c1NC(=O)C2(C)N1CCC[C@@H](NC(=O)C2CCS(=O)(=O)CC2)C1 (stereo partly drawn) [Example 36, N-[(3R)-1-[7-(ethylamino)-5-fluoro-3-methyl-2-oxo-indolin-3-yl]-3-piperidyl]-1,1-dioxo-thiane-4-carboxamide]
19 | 0.012 | CCNc1cc(F)cc2c1NC(=O)C2(C)N1C[C@@H](F)C[C@@H](Nc2ccc(C#N)nc2)C1 (stereo partly drawn) [Example 46, 5-[[(3R,5S)-1-[7-(ethylamino)-5-fluoro-3-methyl-2-oxo-indolin-3-yl]-5-fluoro-3-piperidyl]amino]pyridine-2-carbonitrile]
20 | 0.016 | CCNc1cc(F)cc2c1NC(=O)C2(C)N1CCC[C@@H](N(C)c2ccc(C(N)=O)nc2)C1 (stereo partly drawn) [Example 24, 5-[[(3R)-1-[7-(ethylamino)-5-fluoro-3-methyl-2-oxo-indolin-3-yl]-3-piperidyl]-methyl-amino]pyridine-2-carboxamide]
21 | 0.059 | CCNc1cc(F)cc2c1NC(=O)C2(C)N1CCC[C@H](Nc2ccc(C(=O)O)nc2)C1 (stereo partly drawn) [Example 10, 5-[[(3S)-1-[7-(ethylamino)-5-fluoro-3-methyl-2-oxo-indolin-3-yl]-3-piperidyl]amino]pyridine-2-carboxylic acid]
22 | 0.011 | CCNc1cc(F)cc2c1NC(=O)C2(C)N1C[C@H](F)C[C@@H](Nc2ccc(C#N)nc2)C1 (stereo partly drawn) [Example 45, 5-[[(3R,5R)-1-[7-(ethylamino)-5-fluoro-3-methyl-2-oxo-indolin-3-yl]-5-fluoro-3-piperidyl]amino]pyridine-2-carbonitrile]

Row | SMILES | Enzymatic IC50 against PDHK1 [µg/mL]
23 | CCNc1cc(F)cc2c1NC(=O)[C@]2(C)N1CCC[C@@H](Oc2ccc(S(=O)(=O)F)cc2)C1 [Example 3A, 4-[[(3R)-1-[(3R)-7-(ethylamino)-5-fluoro-3-methyl-2-oxo-indolin-3-yl]-3-piperidyl]oxy]benzenesulfonyl fluoride] | 0.036
24 | CCNc1cc(F)cc2c1NC(=O)C2(C)N1CCC[C@@H](NC(=O)c2cccc(S(=O)(=O)F)c2)C1 (stereo partly drawn) [Example 42, 3-[[(3R)-1-[7-(ethylamino)-5-fluoro-3-methyl-2-oxo-indolin-3-yl]-3-piperidyl]carbamoyl]benzenesulfonyl fluoride] | 0.020
25 | CCNc1cc(F)cc2c1NC(=O)C2(C)N1CCC[C@@H](Nc2ccc(OS(=O)(=O)F)nc2)C1 (stereo partly drawn) [Example 33, 7-(ethylamino)-5-fluoro-3-methyl-2-oxo-3-[(3R)-3-[(6-fluorosulfonyloxy-3-pyridyl)amino]-1-piperidyl]indoline] | 0.068
26 | CCNc1cc(F)cc2c1NC(=O)C2(C)N1CCC[C@@H](NC(=O)c2cccc(OS(=O)(=O)F)c2)C1 (stereo partly drawn) [Example 44, 7-(ethylamino)-5-fluoro-3-[(3R)-3-[(3-fluorosulfonyloxybenzoyl)amino]-1-piperidyl]-3-methyl-2-oxo-indoline] | 0.022
27 | CCNc1cc(F)cc2c1NC(=O)C2(C)N1CCC[C@@H](Nc2cccc(S(=O)(=O)F)c2)C1 (stereo partly drawn) [Example 27, 3-[[(3R)-1-[7-(ethylamino)-5-fluoro-3-methyl-2-oxo-indolin-3-yl]-3-piperidyl]amino]benzenesulfonyl fluoride] | 0.086
28 | CCNc1cc(F)cc2c1NC(=O)C2(C)N1CCC[C@@H](Nc2ccc(S(=O)(=O)F)c(OC)c2)C1 (stereo partly drawn) [Example 28, 4-[[(3R)-1-[7-(ethylamino)-5-fluoro-3-methyl-2-oxo-indolin-3-yl]-3-piperidyl]amino]-2-methoxy-benzenesulfonyl fluoride] | 0.032

Same assay, conditions: 1 nM PDHK1, 25 nM PDHE1, 20 μM ATP, 30° C. for 45 minutes; read-out: Enzymatic IC50 against PDHK1 (converted)

Row | IC50 [nM] | SMILES
29 | 17.1 | CCNc1cc(F)cc2c1NC(=O)[C@@]2(C)N1CC[C@@H](c2ccccc2)[C@@H](C(N)=O)C1 [Example 59B, (3R,4R)-1-[(3S)-7-(ethylamino)-5-fluoro-3-methyl-2-oxo-indolin-3-yl]-4-phenyl-piperidine-3-carboxamide]
30 | 15.2 | CCNc1cc(F)cc2c1NC(=O)[C@@]2(C)N1CCC[C@@H](Oc2ccc(C(=O)O)c(Cl)c2)C1 [Example 1B, 2-chloro-4-[[(3R)-1-[(3S)-7-(ethylamino)-5-fluoro-3-methyl-2-oxo-indolin-3-yl]-3-piperidyl]oxy]benzoic acid]
